The assay addresses T1, chimeric human H3 receptor (Homo sapiens, UniProt Q9Y5N1).
T1 construct: rat Galpha-i2 (Gnai2, rat); made in house; host or cells: Sf9 insect cells (baculovirus); P2 membranes
Put plainly: Chimeric human H3 receptor screening GTP binding assay (inhibition of histamine-stimulated GTP-gamma35S binding, Example 8). The class given is biochemical. The essentials:
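Sf9 membranes co-expressing chimeric human H3 receptor and heterotrimeric G-protein (35 μg protein) incubated 60 min at room temperature with 4 μM compound, 1 μM histamine and 125 pM GTP-gamma35S in pH 7.4 buffer with 10 μM GDP. Filter-bound radioactivity, nonspecific (10 μM GTP-gammaS) subtracted, reported as % inhibition of histamine signal.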
In general terms: Binding of GTPγS marks nucleotide exchange on a G protein.

[1] abbreviates: 1 h, assay of Example 8, symbol "!" in column headed Ki, read-out: percent inhibition of agonist-induced GTP-gammaS binding to H3.
The mark [2] stands for this setting: 1 h, assay described in Example 8, symbol "!" in column headed Ki, read-out: Ki ("!": percent inhibition of agonist-induced GTP-gammaS binding to H3).
Setting [3] is: symbol ! in Ki, test compound 4 μM, 1 μM histamine, read-out: percent inhibition of agonist-induced GTP-gammaS binding to H3.

Like-named read-outs stand apart in the source and are kept apart here.

T1 sequence (Q9Y5N1 with tags, fused parts or gaps): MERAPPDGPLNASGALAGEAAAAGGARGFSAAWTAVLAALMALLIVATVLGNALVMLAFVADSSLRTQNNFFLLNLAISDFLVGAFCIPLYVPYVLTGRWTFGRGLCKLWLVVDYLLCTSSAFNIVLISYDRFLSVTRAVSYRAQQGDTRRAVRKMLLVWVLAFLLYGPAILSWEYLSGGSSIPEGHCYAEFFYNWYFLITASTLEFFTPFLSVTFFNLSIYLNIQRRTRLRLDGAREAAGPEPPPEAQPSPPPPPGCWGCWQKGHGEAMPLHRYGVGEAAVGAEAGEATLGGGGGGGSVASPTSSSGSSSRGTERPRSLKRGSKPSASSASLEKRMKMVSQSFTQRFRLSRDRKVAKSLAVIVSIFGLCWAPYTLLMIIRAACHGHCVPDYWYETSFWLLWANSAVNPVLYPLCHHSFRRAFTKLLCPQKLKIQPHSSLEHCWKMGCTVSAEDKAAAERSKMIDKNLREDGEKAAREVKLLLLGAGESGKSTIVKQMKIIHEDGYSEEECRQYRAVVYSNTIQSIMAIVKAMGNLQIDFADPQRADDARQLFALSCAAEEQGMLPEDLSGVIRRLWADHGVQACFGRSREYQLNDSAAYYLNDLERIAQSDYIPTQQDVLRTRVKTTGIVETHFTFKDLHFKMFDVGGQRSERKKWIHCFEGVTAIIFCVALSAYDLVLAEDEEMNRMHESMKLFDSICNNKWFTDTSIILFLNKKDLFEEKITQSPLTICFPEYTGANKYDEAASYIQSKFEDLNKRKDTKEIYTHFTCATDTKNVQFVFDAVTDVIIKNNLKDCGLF

As for `O=C(/C=C/c1ccc(F)cc1Cl)N1CCc2cnc(N3CCN(C4CCC4)CC3)nc2CC1` [Compound 584, 7-[(2E)-3-(2-chloro-4-fluorophenyl)prop-2-enoyl]-2-(4-cyclobutylpiperazin-1-yl)-6,7,8,9-tetrahydro-5H-pyrimido[4,5-d]azepine], the inhibition at 4 µM under setting [1] is at least 90%.
Still for that read-out and setting: as for `O=C(COc1ccc(Cl)c(Cl)c1)N1CCc2cnc(N3CCN(C4CCC4)CC3)nc2CC1` [Compound 332, 2-(4-cyclobutylpiperazin-1-yl)-7-[(3,4-dichlorophenoxy)acetyl]-6,7,8,9-tetrahydro-5H-pyrimido[4,5-d]azepine], the figure is at least 90%; as for `O=C(c1ccc(OC(F)F)cc1)N1CCc2cnc(N3CCN(C4CCC4)CC3)nc2CC1` [Compound 366, 2-(4-cyclobutylpiperazin-1-yl)-7-[4-(difluoromethoxy)benzoyl]-6,7,8,9-tetrahydro-5H-pyrimido[4,5-d]azepine], at least 90%; as for `Cc1cccc(CN2CCc3cnc(N4CCN(C5CCC5)CC4)nc3CC2)n1` [Compound 238, 2-(4-cyclobutylpiperazin-1-yl)-7-[(6-methylpyridin-2-yl)methyl]-6,7,8,9-tetrahydro-5H-pyrimido[4,5-d]azepine], at least 90%.
Regarding `Nc1ccccc1C(=O)N1CCc2cnc(N3CCN(C4CCC4)CC3)nc2CC1` [Compound 531, 2-{[2-(4-cyclobutylpiperazin-1-yl)-5,6,8,9-tetrahydro-7H-pyrimido[4,5-d]azepin-7-yl]carbonyl}aniline], under setting [2], the inhibition at 4 µM was at least 90%.
Turning to `CCn1nc(C)cc1C(=O)N1CCc2cnc(N3CCN(C4CCC4)CC3)nc2CC1` [Compound 204, 2-(4-cyclobutylpiperazin-1-yl)-7-[(1-ethyl-3-methyl-1H-pyrazol-5-yl)carbonyl]-6,7,8,9-tetrahydro-5H-pyrimido[4,5-d]azepine], the inhibition at 4 µM under setting [1] is at least 90%.
For the compound `O=C(c1ccc(Cl)s1)N1CCc2cnc(N3CCN(C4CCC4)CC3)nc2CC1` [Compound 453, 7-[(5-chloro-2-thienyl)carbonyl]-2-(4-cyclobutylpiperazin-1-yl)-6,7,8,9-tetrahydro-5H-pyrimido[4,5-d]azepine], the inhibition at 4 µM under setting [2] is at least 90%.
For the compound `CCC(=O)N1CCc2cnc(N3CCN(C4CCC4)CC3)nc2CC1` [Compound 184, 2-(4-cyclobutylpiperazin-1-yl)-7-propionyl-6,7,8,9-tetrahydro-5H-pyrimido[4,5-d]azepine], the inhibition at 4 µM under setting [1] was at least 90%.
Still for that read-out and setting: then `N#Cc1ccc(C(=O)N2CCc3cnc(N4CCN(C5CCC5)CC4)nc3CC2)cc1` [Compound 268, 4-{[2-(4-cyclobutylpiperazin-1-yl)-5,6,8,9-tetrahydro-7H-pyrimido[4,5-d]azepin-7-yl]carbonyl}benzonitrile], with at least 90%.
`CCCCN1CCc2nc(N3CCN(C4CCC4)CC3)ncc2C1` [Compound 628, 6-butyl-2-(4-cyclobutylpiperazin-1-yl)-5,6,7,8-tetrahydropyrido[4,3-d]pyrimidine]: the inhibition at 4 µM under setting [3] was at least 90%.
On to `O=C(c1ccccc1F)N1CCc2cnc(N3CCN(C4CCC4)CC3)nc2CC1` [Compound 195, 2-(4-cyclobutylpiperazin-1-yl)-7-(2-fluorobenzoyl)-6,7,8,9-tetrahydro-5H-pyrimido[4,5-d]azepine], for which, under setting [1], the inhibition at 4 µM is at least 90%.
On the same count and under the same terms, as for `CC(C)(C)c1ccc(OCC(=O)N2CCc3cnc(N4CCN(C5CCC5)CC4)nc3CC2)cc1` [Compound 329, 7-[(4-tert-butylphenoxy)acetyl]-2-(4-cyclobutylpiperazin-1-yl)-6,7,8,9-tetrahydro-5H-pyrimido[4,5-d]azepine], the figure is at least 90%.
As for `Cc1ccc(CN2CCc3ncnc(N4CCN(C5CCC5)CC4)c3CC2)cc1C` [Compound 172, 4-(4-cyclobutylpiperazin-1-yl)-7-(3,4-dimethylbenzyl)-6,7,8,9-tetrahydro-5H-pyrimido[4,5-d]azepine], the inhibition at 4 µM under setting [3] is at least 90%.
In the case of `COc1cc(Br)c(CC(=O)N2CCc3cnc(N4CCN(C5CCC5)CC4)nc3CC2)cc1OC` [Compound 299, 7-[(2-bromo-4,5-dimethoxyphenyl)acetyl]-2-(4-cyclobutylpiperazin-1-yl)-6,7,8,9-tetrahydro-5H-pyrimido[4,5-d]azepine], the inhibition at 4 µM under setting [1] was at least 90%.
Turning to `CCCC(C)CN1CCc2c(ncnc2N2CCN(C3CCC3)CC2)C1` (centres unmarked) [Compound 90, 4-(4-cyclobutylpiperazin-1-yl)-7-(2-methylpentyl)-5,6,7,8-tetrahydropyrido[3,4-d]pyrimidine], under setting [3], the inhibition at 4 µM was at least 90%.
Consider `O=C(Cc1cccc(Oc2ccccc2)c1)N1CCc2cnc(N3CCN(C4CCC4)CC3)nc2CC1` [Compound 282, 2-(4-cyclobutylpiperazin-1-yl)-7-[(3-phenoxyphenyl)acetyl]-6,7,8,9-tetrahydro-5H-pyrimido[4,5-d]azepine], for which the inhibition at 4 µM under setting [1] is at least 90%.
On the same count and under the same terms, as for `COCCOCC(=O)N1CCc2cnc(N3CCN(C4CCC4)CC3)nc2CC1` [Compound 228, 2-(4-cyclobutylpiperazin-1-yl)-7-[(2-methoxyethoxy)acetyl]-6,7,8,9-tetrahydro-5H-pyrimido[4,5-d]azepine], the figure is at least 90%; as for `O=C(COc1ccc(OC(F)(F)F)cc1)N1CCc2cnc(N3CCN(C4CCC4)CC3)nc2CC1` [Compound 319, 2-(4-cyclobutylpiperazin-1-yl)-7-{[4-(trifluoromethoxy)phenoxy]acetyl}-6,7,8,9-tetrahydro-5H-pyrimido[4,5-d]azepine], at least 90%; as for `Cc1cccc(OCC(=O)N2CCc3cnc(N4CCN(C5CCC5)CC4)nc3CC2)c1` [Compound 322, 2-(4-cyclobutylpiperazin-1-yl)-7-[(3-methylphenoxy)acetyl]-6,7,8,9-tetrahydro-5H-pyrimido[4,5-d]azepine], at least 90%.
The same measure, in the same setting: then `O=C(COc1cccc(Cl)c1)N1CCc2cnc(N3CCN(C4CCC4)CC3)nc2CC1` [Compound 330, 7-[(3-chlorophenoxy)acetyl]-2-(4-cyclobutylpiperazin-1-yl)-6,7,8,9-tetrahydro-5H-pyrimido[4,5-d]azepine], with at least 90%; and `CC(C)c1ccc(CN2CCc3cnc(N4CCN(C5CCC5)CC4)nc3CC2)cc1` [Compound 244, 2-(4-cyclobutylpiperazin-1-yl)-7-(4-isopropylbenzyl)-6,7,8,9-tetrahydro-5H-pyrimido[4,5-d]azepine], with at least 90%; and `Cc1ccc(C)c(C(=O)N2CCc3cnc(N4CCN(C5CCC5)CC4)nc3CC2)c1` [Compound 227, 2-(4-cyclobutylpiperazin-1-yl)-7-(2,5-dimethylbenzoyl)-6,7,8,9-tetrahydro-5H-pyrimido[4,5-d]azepine], with at least 90%.
On to `COc1ccc(CC(=O)N2CCc3cnc(N4CCN(C5CCC5)CC4)nc3CC2)c(OC)c1` [Compound 310, 2-(4-cyclobutylpiperazin-1-yl)-7-[(2,4-dimethoxyphenyl)acetyl]-6,7,8,9-tetrahydro-5H-pyrimido[4,5-d]azepine], for which the inhibition at 4 µM under setting [1] was at least 90%.
Regarding `Fc1ccc(CN2CCc3nc(N4CCN(C5CCC5)CC4)ncc3C2)cc1` [Compound 613, 2-(4-cyclobutylpiperazin-1-yl)-6-(4-fluorobenzyl)-5,6,7,8-tetrahydropyrido[4,3-d]pyrimidine], the inhibition at 4 µM under setting [3] was at least 90%.
As to `CC(C)CCN1CCc2nc(N3CCN(C4CCC4)CC3)ncc2C1` [Compound 626, 2-(4-cyclobutylpiperazin-1-yl)-6-(3-methylbutyl)-5,6,7,8-tetrahydropyrido[4,3-d]pyrimidine], the inhibition at 4 µM under setting [3] is at least 90%.
Consider `CCN(CCN(C)C)c1ncnc2c1CCN(Cc1ccccc1)C2` [Compound 14, N-(7-benzyl-5,6,7,8-tetrahydropyrido[3,4-d]pyrimidin-4-yl)-N-ethyl-N′,N′-dimethylethane-1,2-diamine], for which, under setting [3], the inhibition at 4 µM was at least 90%.
With `O=C(c1cccc(C(F)(F)F)c1)N1CCc2cnc(N3CCN(C4CCC4)CC3)nc2CC1` [Compound 397, 2-(4-cyclobutylpiperazin-1-yl)-7-[3-(trifluoromethyl)benzoyl]-6,7,8,9-tetrahydro-5H-pyrimido[4,5-d]azepine], the inhibition at 4 µM under setting [2] was at least 90%.
Turning to `COc1ccc(C(=O)N2CCc3c(ncnc3N3CCN(C4CCC4)CC3)C2)cc1Cl` [Compound 63, 7-(3-chloro-4-methoxybenzoyl)-4-(4-cyclobutylpiperazin-1-yl)-5,6,7,8-tetrahydropyrido[3,4-d]pyrimidine], the inhibition at 4 µM under setting [3] is at least 90%.
`Cc1ccc(OCC(=O)N2CCc3cnc(N4CCN(C5CCC5)CC4)nc3CC2)cc1` [Compound 316, 2-(4-cyclobutylpiperazin-1-yl)-7-[(4-methylphenoxy)acetyl]-6,7,8,9-tetrahydro-5H-pyrimido[4,5-d]azepine]: the inhibition at 4 µM under setting [1] is at least 90%.
In the case of `O=C(/C=C/c1ccccc1F)N1CCc2cnc(N3CCN(C4CCC4)CC3)nc2CC1` [Compound 547, 2-(4-cyclobutylpiperazin-1-yl)-7-[(2E)-3-(2-fluorophenyl)prop-2-enoyl]-6,7,8,9-tetrahydro-5H-pyrimido[4,5-d]azepine], the inhibition at 4 µM under setting [2] was at least 90%.
In the case of `Cc1c(F)cccc1C(C)N1CCc2c(ncnc2N2CCN(C3CCC3)CC2)C1` (centres unmarked) [Compound 134, 4-(4-cyclobutylpiperazin-1-yl)-7-[1-(3-fluoro-2-methylphenyl)ethyl]-5,6,7,8-tetrahydropyrido[3,4-d]pyrimidine], the inhibition at 4 µM under setting [3] is at least 90%.
As to `COc1ccc(C(=O)N2CCc3cnc(N4CCN(C5CCC5)CC4)nc3CC2)cc1Cl` [Compound 226, 7-(3-chloro-4-methoxybenzoyl)-2-(4-cyclobutylpiperazin-1-yl)-6,7,8,9-tetrahydro-5H-pyrimido[4,5-d]azepine], the inhibition at 4 µM under setting [1] was at least 90%.

One may read the inhibition as the change of the read-out against control, counted positive when it falls.
